Drawing on US20250213555A1, “SUBSTITUTED TETRAHYDROFURAN ANALOGS AS MODULATORS OF SODIUM CHANNELS” (VERTEX PHARMACEUTICALS INCORPORATED, priority 2021, published 2025), this text covers IC50 for 21 molecules.

Sequence of human Nav 1.8 (Q9Y5Y9 126-399 limits assumed): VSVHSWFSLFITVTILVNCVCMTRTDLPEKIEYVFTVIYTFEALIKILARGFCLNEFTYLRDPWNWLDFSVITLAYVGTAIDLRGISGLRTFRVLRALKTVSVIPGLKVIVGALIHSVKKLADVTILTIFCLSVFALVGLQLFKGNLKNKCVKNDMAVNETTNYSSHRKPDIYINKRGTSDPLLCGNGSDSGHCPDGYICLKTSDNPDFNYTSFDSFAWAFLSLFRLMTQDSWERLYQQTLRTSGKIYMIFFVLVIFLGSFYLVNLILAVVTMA
Sequence of human Nav 1.8 (Q9Y5Y9 660-890 limits assumed): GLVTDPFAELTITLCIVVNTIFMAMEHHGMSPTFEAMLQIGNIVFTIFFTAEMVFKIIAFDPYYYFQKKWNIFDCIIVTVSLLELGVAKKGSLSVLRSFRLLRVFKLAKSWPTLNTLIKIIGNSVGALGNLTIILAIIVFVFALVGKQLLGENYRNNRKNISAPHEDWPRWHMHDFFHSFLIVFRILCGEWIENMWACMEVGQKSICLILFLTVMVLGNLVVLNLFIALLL
Sequence of human Nav 1.8 (Q9Y5Y9 1148-1722 limits assumed): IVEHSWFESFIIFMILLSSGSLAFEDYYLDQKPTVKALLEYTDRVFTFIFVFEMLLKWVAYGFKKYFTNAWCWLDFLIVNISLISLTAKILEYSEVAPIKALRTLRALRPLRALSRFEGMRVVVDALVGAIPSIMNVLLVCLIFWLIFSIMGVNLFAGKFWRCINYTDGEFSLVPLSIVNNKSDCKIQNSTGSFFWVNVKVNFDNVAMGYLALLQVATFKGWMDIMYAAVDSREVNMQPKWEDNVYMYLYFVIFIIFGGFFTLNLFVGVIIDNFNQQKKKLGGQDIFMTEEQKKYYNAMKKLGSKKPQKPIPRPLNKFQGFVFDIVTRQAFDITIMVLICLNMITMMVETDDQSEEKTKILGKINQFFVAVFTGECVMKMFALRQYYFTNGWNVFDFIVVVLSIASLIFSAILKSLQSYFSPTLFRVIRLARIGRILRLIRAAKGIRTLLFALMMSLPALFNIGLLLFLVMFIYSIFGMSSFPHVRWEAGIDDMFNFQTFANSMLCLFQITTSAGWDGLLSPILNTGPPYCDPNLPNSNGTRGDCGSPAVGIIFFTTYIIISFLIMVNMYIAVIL

The assay addresses human Nav 1.8 (Homo sapiens, UniProt Q9Y5Y9). Nature of the assay: E-VIPR assay detecting and measuring Nav inhibition properties. The class given is cell-based. The note with it: HEK cells expressing a truncated form of human Nav 1.8; compound numbers without "*" (not marked as run in the presence of human serum); read-out: measured IC50 value in the E-VIPR Assay. An outline of the steps: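 Nav inhibition was read by E-VIPR: cells were electrically stimulated while coumarin/oxonol FRET emissions were recorded. Cells were HEK expressing a truncated human Nav 1.8 and co-transduced with KIR2.1, and were assayed in 25% final human serum.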
In the case of `COc1c([C@H]2[C@H](C(=O)Nc3ccnc(C(=O)N[C@@H]4CNC[C@H](C)C4)c3)O[C@@](C)(C(F)(F)F)[C@H]2C)ccc(F)c1F` [Compound 252, 4-((2R,3S,4S,5R)-3-(3,4-difluoro-2-methoxyphenyl)-4,5-dimethyl-5-(trifluoromethyl)tetrahydrofuran-2-carboxamido)-N-((3S,5R)-5-methylpiperidin-3-yl)picolinamide], the IC50 (usually the concentration that gives 50% inhibition) fell in the range of 10 to 100 nM.
`CCO[C@H]1CNC[C@@H]1NC(=O)c1cc(NC(=O)[C@@H]2O[C@@](C)(C(F)(F)F)[C@@H](C)[C@H]2c2ccc(F)c(F)c2OC)ccn1` [Compound 253, 4-((2R,3S,4S,5R)-3-(3,4-difluoro-2-methoxyphenyl)-4,5-dimethyl-5-(trifluoromethyl)tetrahydrofuran-2-carboxamido)-N-((3S,4S)-4-ethoxypyrrolidin-3-yl)picolinamide]: the IC50 was in the range of 10 to 100 nM.
Turning to `COc1c([C@H]2[C@H](C(=O)Nc3ccnc(C(=O)N4C[C@H]5C[C@@H]4CN5)c3)O[C@@](C)(C(F)(F)F)[C@H]2C)ccc(F)c1F` [Compound 254, (2R,3S,4S,5R)-N-(2-((1R,4R)-2,5-diazabicyclo[2.2.1]heptane-2-carbonyl)pyridin-4-yl)-3-(3,4-difluoro-2-methoxyphenyl)-4,5-dimethyl-5-(trifluoromethyl)tetrahydrofuran-2-carboxamide], the IC50 was below 10 nM.
As for `COc1c([C@H]2[C@H](C(=O)Nc3ccnc(C(=O)N4C[C@@H](F)[C@@H](N)C4)c3)O[C@@](C)(C(F)(F)F)[C@H]2C)ccc(F)c1F` [Compound 255, (2R,3S,4S,5R)-N-(2-((3S,4R)-3-amino-4-fluoropyrrolidine-1-carbonyl)pyridin-4-yl)-3-(3,4-difluoro-2-methoxyphenyl)-4,5-dimethyl-5-(trifluoromethyl)tetrahydrofuran-2-carboxamide], the IC50 is below 10 nM.
Take `CN[C@H]1CN(C(=O)c2cc(NC(=O)[C@@H]3O[C@@](C)(C(F)(F)F)[C@@H](C)[C@H]3c3ccc(F)c(F)c3OC)ccn2)C[C@@H]1OC` [Compound 256, (2R,3S,4S,5R)-3-(3,4-difluoro-2-methoxyphenyl)-N-(2-((3S,4S)-3-methoxy-4-(methylamino)pyrrolidine-1-carbonyl)pyridin-4-yl)-4,5-dimethyl-5-(trifluoromethyl)tetrahydrofuran-2-carboxamide]: the IC50 was below 10 nM.
As for `COc1c([C@H]2[C@H](C(=O)Nc3ccnc(C(=O)N4C[C@H](N)[C@H](OC)C4)c3)O[C@@](C)(C(F)(F)F)[C@H]2C)ccc(F)c1F` [Compound 257, (2R,3S,4S,5R)-N-(2-((3S,4R)-3-amino-4-methoxypyrrolidine-1-carbonyl)pyridin-4-yl)-3-(3,4-difluoro-2-methoxyphenyl)-4,5-dimethyl-5-(trifluoromethyl)tetrahydrofuran-2-carboxamide], the figure is below 10 nM.
Consider `COc1c([C@H]2[C@H](C(=O)Nc3ccnc(C(=O)N4C[C@@H](N)[C@H](F)C4)c3)O[C@@](C)(C(F)(F)F)[C@H]2C)ccc(F)c1F` [Compound 258, (2R,3S,4S,5R)-N-(2-((3R,4R)-3-amino-4-fluoropyrrolidine-1-carbonyl)pyridin-4-yl)-3-(3,4-difluoro-2-methoxyphenyl)-4,5-dimethyl-5-(trifluoromethyl)tetrahydrofuran-2-carboxamide], for which the IC50 is below 10 nM.
Regarding `COc1c([C@H]2[C@H](C(=O)Nc3ccnc(C(=O)N4C[C@@H](N)[C@@H](F)C4)c3)O[C@@](C)(C(F)(F)F)[C@H]2C)ccc(F)c1F` [Compound 259, (2R,3S,4S,5R)-N-(2-((3R,4S)-3-amino-4-fluoropyrrolidine-1-carbonyl)pyridin-4-yl)-3-(3,4-difluoro-2-methoxyphenyl)-4,5-dimethyl-5-(trifluoromethyl)tetrahydrofuran-2-carboxamide], the IC50 was below 10 nM.
The same measure for `COc1c([C@H]2[C@H](C(=O)Nc3ccnc(C(=O)N4C[C@H](N)[C@@H](F)C4)c3)O[C@@](C)(C(F)(F)F)[C@H]2C)ccc(F)c1F` [Compound 260, (2R,3S,4S,5R)-N-(2-((3S,4S)-3-amino-4-fluoropyrrolidine-1-carbonyl)pyridin-4-yl)-3-(3,4-difluoro-2-methoxyphenyl)-4,5-dimethyl-5-(trifluoromethyl)tetrahydrofuran-2-carboxamide]: below 10 nM.
On to `COc1c([C@H]2[C@H](C(=O)Nc3ccnc(C(=O)N4C[C@@H](N)[C@@H](OC)C4)c3)O[C@@](C)(C(F)(F)F)[C@H]2C)ccc(F)c1F` [Compound 261, (2R,3S,4S,5R)-N-(2-((3R,4S)-3-amino-4-methoxypyrrolidine-1-carbonyl)pyridin-4-yl)-3-(3,4-difluoro-2-methoxyphenyl)-4,5-dimethyl-5-(trifluoromethyl)tetrahydrofuran-2-carboxamide], for which the IC50 is below 10 nM.
On to `COc1c([C@H]2[C@H](C(=O)Nc3ccnc(C(=O)N4C[C@H](OC)[C@@H](N)C4)c3)O[C@@](C)(C(F)(F)F)[C@H]2C)ccc(F)c1F` [Compound 262, (2R,3S,4S,5R)-N-(2-((3S,4S)-3-amino-4-methoxypyrrolidine-1-carbonyl)pyridin-4-yl)-3-(3,4-difluoro-2-methoxyphenyl)-4,5-dimethyl-5-(trifluoromethyl)tetrahydrofuran-2-carboxamide], for which the IC50 was below 10 nM.
As for `COc1c([C@H]2[C@H](C(=O)Nc3ccnc(C(=O)N4C[C@@H](N)[C@H](OC)C4)c3)O[C@@](C)(C(F)(F)F)[C@H]2C)ccc(F)c1F` [Compound 263, (2R,3S,4S,5R)-N-(2-((3R,4R)-3-amino-4-methoxypyrrolidine-1-carbonyl)pyridin-4-yl)-3-(3,4-difluoro-2-methoxyphenyl)-4,5-dimethyl-5-(trifluoromethyl)tetrahydrofuran-2-carboxamide], the figure is below 10 nM; as for `COc1c([C@H]2[C@H](C(=O)Nc3ccnc(C(=O)N4CCC45CN(C)C5)c3)O[C@@](C)(C(F)(F)F)[C@H]2C)ccc(F)c1F` [Compound 266, (2R,3S,4S,5R)-3-(3,4-difluoro-2-methoxyphenyl)-4,5-dimethyl-N-(2-(6-methyl-1,6-diazaspiro[3.3]heptane-1-carbonyl)pyridin-4-yl)-5-(trifluoromethyl)tetrahydrofuran-2-carboxamide], 10 to 100 nM.
The same measure for `COc1c([C@H]2[C@H](C(=O)Nc3ccnc(C(=O)NC[C@@H]4CC(F)(F)CN4C)c3)O[C@@](C)(C(F)(F)F)[C@H]2C)ccc(F)c1F` [Compound 267, N-(((S)-4,4-difluoro-1-methylpyrrolidin-2-yl)methyl)-4-((2R,3S,4S,5R)-3-(3,4-difluoro-2-methoxyphenyl)-4,5-dimethyl-5-(trifluoromethyl)tetrahydrofuran-2-carboxamido)picolinamide]: 100 to 1000 nM; for `COc1c([C@H]2[C@H](C(=O)Nc3ccnc(C(=O)N4CC5(CN(C)C5)C4)c3)O[C@@](C)(C(F)(F)F)[C@H]2C)ccc(F)c1F` [Compound 268, (2R,3S,4S,5R)-3-(3,4-difluoro-2-methoxyphenyl)-4,5-dimethyl-N-(2-(6-methyl-2,6-diazaspiro[3.3]heptane-2-carbonyl)pyridin-4-yl)-5-(trifluoromethyl)tetrahydrofuran-2-carboxamide]: below 10 nM; for `COc1c([C@H]2[C@H](C(=O)Nc3ccnc(C(=O)N(C)[C@@H]4CCN(C)C4)c3)O[C@@](C)(C(F)(F)F)[C@H]2C)ccc(F)c1F` [Compound 269, 4-((2R,3S,4S,5R)-3-(3,4-difluoro-2-methoxyphenyl)-4,5-dimethyl-5-(trifluoromethyl)tetrahydrofuran-2-carboxamido)-N-methyl-N-((R)-1-methylpyrrolidin-3-yl)picolinamide]: below 10 nM.
Take `COc1c([C@H]2[C@H](C(=O)Nc3ccnc(C(=O)N4CC5(CCCN5C)C4)c3)O[C@@](C)(C(F)(F)F)[C@H]2C)ccc(F)c1F` [Compound 270, (2R,3S,4S,5R)-3-(3,4-difluoro-2-methoxyphenyl)-4,5-dimethyl-N-(2-(5-methyl-2,5-diazaspiro[3.4]octane-2-carbonyl)pyridin-4-yl)-5-(trifluoromethyl)tetrahydrofuran-2-carboxamide]: the IC50 lay within 10 to 100 nM.
Take `COc1c([C@H]2[C@H](C(=O)Nc3ccnc(C(=O)NCCN(C)C)c3)O[C@@](C)(C(F)(F)F)[C@H]2C)ccc(F)c1F` [Compound 271, 4-((2R,3S,4S,5R)-3-(3,4-difluoro-2-methoxyphenyl)-4,5-dimethyl-5-(trifluoromethyl)tetrahydrofuran-2-carboxamido)-N-(2-(dimethylamino)ethyl)picolinamide]: the IC50 was below 10 nM.
The same measure for `COc1c([C@H]2[C@H](C(=O)Nc3ccnc(C(=O)N4CCN(C)C[C@@H]4C)c3)O[C@@](C)(C(F)(F)F)[C@H]2C)ccc(F)c1F` [Compound 272, (2R,3S,4S,5R)-3-(3,4-difluoro-2-methoxyphenyl)-N-(2-((S)-2,4-dimethylpiperazine-1-carbonyl)pyridin-4-yl)-4,5-dimethyl-5-(trifluoromethyl)tetrahydrofuran-2-carboxamide]: 10 to 100 nM; for `COc1c([C@H]2[C@H](C(=O)Nc3ccnc(C(=O)N(C)CCN(C)C)c3)O[C@@](C)(C(F)(F)F)[C@H]2C)ccc(F)c1F` [Compound 273, 4-((2R,3S,4S,5R)-3-(3,4-difluoro-2-methoxyphenyl)-4,5-dimethyl-5-(trifluoromethyl)tetrahydrofuran-2-carboxamido)-N-(2-(dimethylamino)ethyl)-N-methylpicolinamide]: below 10 nM; for `COc1c([C@H]2[C@H](C(=O)Nc3ccnc(C(=O)N4CCN(C)C[C@H]4C)c3)O[C@@](C)(C(F)(F)F)[C@H]2C)ccc(F)c1F` [Compound 274, (2R,3S,4S,5R)-3-(3,4-difluoro-2-methoxyphenyl)-N-(2-((R)-2,4-dimethylpiperazine-1-carbonyl)pyridin-4-yl)-4,5-dimethyl-5-(trifluoromethyl)tetrahydrofuran-2-carboxamide]: below 10 nM.
